“And” between values parts separate entries of the source, which are not always exact repeats. Equal entries are not always repeated. HELM strings list units from the 5' end as sugar, base in round brackets, then linkage (d deoxyribose, r ribose, m 2'-O-methyl, p phosphodiester). Methylation of C is not given here. [moe] = 2'-O-(2-methoxyethyl) (MOE); [cEt] = constrained ethyl (cEt); [sp] = phosphorothioate linkage
Molecular target: HBV
Settings: ASO

Row | Substance | target mRNA inhibition (HepG2, 0.07 µM) | other results
1 | RNA1{[moe](G)[sp].[moe](T)[sp].[moe](T)[sp].[moe](C)[sp].d(C)[sp].d(G)[sp].d(C)[sp].d(A)[sp].d(G)[sp].d(T)[sp].d(A)[sp].d(T)[sp].d(G)[sp].[moe](G)[sp].[moe](A)[sp].[moe](T)[sp].[moe](C)}$$$$V2.0 | 52% and 43% | –
2 | RNA1{[moe](G)[sp].[moe](G)[sp].[moe](C)[sp].[moe](A)[sp].d(T)[sp].d(A)[sp].d(G)[sp].d(C)[sp].d(A)[sp].d(G)[sp].d(C)[sp].d(A)[sp].d(G)[sp].[moe](G)[sp].[moe](A)[sp].[moe](T)}$$$$V2.0 | 57% and 50% | –
3 | RNA1{[moe](T)[sp].[cEt](T)[sp].d(T)[sp].d(A)[sp].d(T)[sp].d(G)[sp].d(C)[sp].d(C)[sp].d(T)[sp].d(A)[sp].d(C)[sp].d(A)[sp].[cEt](G)[sp].[moe](C)[sp].[cEt](C)[sp].[moe](T)}$$$$V2.0 | 8% and 1% | –
4 | RNA1{[moe](G)[sp].[cEt](G)[sp].[cEt](C)[sp].d(A)[sp].d(C)[sp].d(A)[sp].d(G)[sp].d(C)[sp].d(T)[sp].d(T)[sp].d(G)[sp].d(G)[sp].d(A)[sp].[cEt](G)[sp].[cEt](G)[sp].[moe](C)}$$$$V2.0 | 36% and 39% | –
5 | RNA1{[moe](G)[sp].[moe](T)[sp].[moe](G)[sp].[moe](A)[sp].[moe](A)[sp].d(G)[sp].d(C)[sp].d(G)[sp].d(A)[sp].d(A)[sp].d(G)[sp].d(T)[sp].d(G)[sp].d(C)[sp].[moe](A)[sp].[moe](C)}$$$$V2.0 | 70% and 58% | –
6 | RNA1{[moe](C)[sp].[moe](A)[sp].d(C)[sp].d(T)[sp].d(A)[sp].d(G)[sp].d(T)[sp].d(A)[sp].d(A)[sp].d(A)[sp].d(C)[sp].[moe](T)[sp].[moe](G)[sp].[moe](A)[sp].[moe](G)[sp].[moe](C)}$$$$V2.0 | 52% and 53% | –
7 | RNA1{[moe](A)[sp].[moe](C)[sp].d(T)[sp].d(A)[sp].d(G)[sp].d(T)[sp].d(A)[sp].d(A)[sp].d(A)[sp].d(C)[sp].d(T)[sp].[moe](G)[sp].[moe](A)[sp].[moe](G)[sp].[moe](C)[sp].[moe](C)}$$$$V2.0 | 57% and 47% | –
8 | RNA1{[moe](G)[sp].[moe](A)[sp].[moe](G)[sp].[moe](G)[sp].[moe](C)[sp].[moe](A)[sp].d(T)[sp].d(A)[sp].d(G)[sp].d(C)[sp].d(A)[sp].d(G)[sp].d(C)[sp].d(A)[sp].d(G)[sp].[moe](G)[sp].[moe](A)}$$$$V2.0 | 61% and 45% | –
9 | RNA1{[moe](A)[sp].[moe](C)[sp].d(T)[sp].d(G)[sp].d(G)[sp].d(A)[sp].d(G)[sp].d(C)[sp].d(C)[sp].d(A)[sp].d(C)[sp].[moe](C)[sp].[moe](A)[sp].[moe](G)[sp].[moe](C)[sp].[moe](A)[sp].[moe](G)}$$$$V2.0 | 70% and 61% | –
10 | RNA1{[moe](T)[sp].[moe](G)[sp].[moe](A)[sp].[moe](A)[sp].[moe](G)[sp].d(C)[sp].d(G)[sp].d(A)[sp].d(A)[sp].d(G)[sp].d(T)[sp].d(G)[sp].d(C)[sp].d(A)[sp].[moe](C)[sp].[moe](A)}$$$$V2.0 | 59% and 47% | –
11 | RNA1{[moe](C)[sp].[moe](A)[sp].d(C)[sp].d(T)[sp].d(A)[sp].d(G)[sp].d(T)[sp].d(A)[sp].d(A)[sp].d(A)[sp].d(C)[sp].[moe](T)[sp].[moe](G)[sp].[moe](A)[sp].[moe](G)[sp].[moe](C)[sp].[moe](C)}$$$$V2.0 | 73% and 66% | –
12 | RNA1{[moe](C)[sp].[moe](C)[sp].[moe](A)[sp].d(A)[sp].d(T)[sp].d(T)[sp].d(T)[sp].d(A)[sp].d(T)[sp].d(G)[sp].d(C)[sp].d(C)[sp].d(T)[sp].[cEt](A)[sp].[cEt](C)[sp].[cEt](A)}$$$$V2.0 | 37% and 34% | –
13 | RNA1{[moe](T)[sp].[moe](G)[sp].[moe](A)[sp].d(A)[sp].d(G)[sp].d(C)[sp].d(G)[sp].d(A)[sp].d(A)[sp].d(G)[sp].d(T)[sp].d(G)[sp].[moe](C)[sp].[moe](A)[sp].[moe](C)[sp].[moe](A)}$$$$V2.0 | 76% and 66% | target mRNA inhibition (HepG2, 0.0092593 µM): 11%; target mRNA inhibition (HepG2, 0.0277778 µM): 22%; target mRNA inhibition (HepG2, 0.0833333 µM): 44%; target mRNA inhibition (HepG2, 0.25 µM): 64%
14 | RNA1{[moe](A)[sp].[cEt](T)[sp].d(G)[sp].d(A)[sp].d(G)[sp].d(G)[sp].d(C)[sp].d(A)[sp].d(T)[sp].d(A)[sp].d(G)[sp].d(C)[sp].[cEt](A)[sp].[moe](G)[sp].[cEt](C)[sp].[moe](A)}$$$$V2.0 | 63% and 57% | –
15 | RNA1{[moe](G)[sp].[moe](A)[sp].d(A)[sp].d(C)[sp].d(T)[sp].d(G)[sp].d(G)[sp].d(A)[sp].d(G)[sp].d(C)[sp].d(C)[sp].[moe](A)[sp].[moe](C)[sp].[moe](C)[sp].[moe](A)[sp].[moe](G)}$$$$V2.0 | 40% and 18% | –
16 | RNA1{[moe](T)[sp].[moe](C)[sp].[moe](C)[sp].[moe](G)[sp].d(C)[sp].d(A)[sp].d(G)[sp].d(T)[sp].d(A)[sp].d(T)[sp].d(G)[sp].d(G)[sp].d(A)[sp].[moe](T)[sp].[moe](C)[sp].[moe](G)[sp].[moe](G)}$$$$V2.0 | 72% and 65% | –

Row | Substance | target mRNA inhibition (HepG2, 0.07 µM) | other results
17 | RNA1{[moe](C)[sp].[moe](A)[sp].[moe](C)[sp].[moe](T)[sp].d(A)[sp].d(G)[sp].d(T)[sp].d(A)[sp].d(A)[sp].d(A)[sp].d(C)[sp].d(T)[sp].d(G)[sp].[moe](A)[sp].[moe](G)[sp].[moe](C)}$$$$V2.0 | 56% and 50% | –
18 | RNA1{[moe](G)[sp].[moe](G)[sp].[moe](C)[sp].d(A)[sp].d(T)[sp].d(A)[sp].d(G)[sp].d(C)[sp].d(A)[sp].d(G)[sp].d(C)[sp].d(A)[sp].d(G)[sp].[cEt](G)[sp].[cEt](A)[sp].[cEt](T)}$$$$V2.0 | 56% and 44% | –
19 | RNA1{[moe](G)[sp].[moe](A)[sp].[moe](A)[sp].[moe](G)[sp].[moe](C)[sp].d(G)[sp].d(A)[sp].d(A)[sp].d(G)[sp].d(T)[sp].d(G)[sp].d(C)[sp].d(A)[sp].d(C)[sp].[moe](A)[sp].[moe](C)}$$$$V2.0 | 70% and 67% | –
20 | RNA1{[moe](G)[sp].[moe](A)[sp].[moe](A)[sp].[moe](C)[sp].[moe](T)[sp].[moe](G)[sp].d(G)[sp].d(A)[sp].d(G)[sp].d(C)[sp].d(C)[sp].d(A)[sp].d(C)[sp].d(C)[sp].d(A)[sp].[moe](G)[sp].[moe](C)}$$$$V2.0 | 55% and 48% | –
21 | RNA1{[moe](C)[sp].[cEt](T)[sp].[cEt](G)[sp].d(A)[sp].d(G)[sp].d(G)[sp].d(C)[sp].d(C)[sp].d(C)[sp].d(A)[sp].d(C)[sp].d(T)[sp].d(C)[sp].[cEt](C)[sp].[cEt](C)[sp].[moe](A)}$$$$V2.0 | 59% and 84% | target mRNA inhibition (HepG2, 0.0092593 µM): 58%; target mRNA inhibition (HepG2, 0.0277778 µM): 83%; target mRNA inhibition (HepG2, 0.0833333 µM): 90%; target mRNA inhibition (HepG2, 0.25 µM): 90%
22 | RNA1{[moe](A)[sp].[moe](T)[sp].d(T)[sp].d(T)[sp].d(A)[sp].d(T)[sp].d(G)[sp].d(C)[sp].d(C)[sp].d(T)[sp].d(A)[sp].[moe](C)[sp].[moe](A)[sp].[moe](G)[sp].[moe](C)[sp].[moe](C)}$$$$V2.0 | 36% and 25% | –
23 | RNA1{[moe](C)[sp].[moe](T)[sp].[moe](A)[sp].[moe](G)[sp].d(T)[sp].d(A)[sp].d(A)[sp].d(A)[sp].d(C)[sp].d(T)[sp].d(G)[sp].d(A)[sp].d(G)[sp].[moe](C)[sp].[moe](C)[sp].[moe](A)}$$$$V2.0 | 66% and 65% | –
24 | RNA1{[moe](A)[sp].[moe](A)[sp].d(C)[sp].d(C)[sp].d(A)[sp].d(C)[sp].d(T)[sp].d(G)[sp].d(A)[sp].d(A)[sp].d(C)[sp].[moe](A)[sp].[moe](A)[sp].[moe](A)[sp].[moe](T)[sp].[moe](G)}$$$$V2.0 | 15% and 0% | –
25 | RNA1{[moe](T)[sp].[moe](C)[sp].d(C)[sp].d(G)[sp].d(C)[sp].d(A)[sp].d(G)[sp].d(T)[sp].d(A)[sp].d(T)[sp].d(G)[sp].[moe](G)[sp].[moe](A)[sp].[moe](T)[sp].[moe](C)[sp].[moe](G)[sp].[moe](G)}$$$$V2.0 | 74% and 70% | –
26 | RNA1{[moe](G)[sp].[moe](C)[sp].d(A)[sp].d(C)[sp].d(T)[sp].d(A)[sp].d(G)[sp].d(T)[sp].d(A)[sp].d(A)[sp].d(A)[sp].[moe](C)[sp].[moe](T)[sp].[moe](G)[sp].[moe](A)[sp].[moe](G)}$$$$V2.0 | 54% and 47% | –
27 | RNA1{[moe](A)[sp].[moe](A)[sp].[moe](T)[sp].[moe](T)[sp].[moe](T)[sp].[moe](A)[sp].d(T)[sp].d(G)[sp].d(C)[sp].d(C)[sp].d(T)[sp].d(A)[sp].d(C)[sp].d(A)[sp].d(G)[sp].[moe](C)[sp].[moe](C)}$$$$V2.0 | 53% and 48% | –
28 | RNA1{[moe](G)[sp].[moe](A)[sp].[moe](A)[sp].[moe](G)[sp].d(C)[sp].d(G)[sp].d(A)[sp].d(A)[sp].d(G)[sp].d(T)[sp].d(G)[sp].d(C)[sp].d(A)[sp].[moe](C)[sp].[moe](A)[sp].[moe](C)}$$$$V2.0 | 48% and 59% | –
29 | RNA1{[moe](A)[sp].[moe](C)[sp].[moe](C)[sp].d(A)[sp].d(C)[sp].d(T)[sp].d(G)[sp].d(A)[sp].d(A)[sp].d(C)[sp].d(A)[sp].d(A)[sp].[moe](A)[sp].[moe](T)[sp].[moe](G)[sp].[moe](G)}$$$$V2.0 | 0% and 3% | –
30 | RNA1{[moe](G)[sp].[moe](A)[sp].[moe](G)[sp].[moe](T)[sp].d(T)[sp].d(C)[sp].d(C)[sp].d(G)[sp].d(C)[sp].d(A)[sp].d(G)[sp].d(T)[sp].d(A)[sp].[moe](T)[sp].[moe](G)[sp].[moe](G)[sp].[moe](A)}$$$$V2.0 | 62% and 51% | –
31 | RNA1{[moe](C)[sp].[cEt](C)[sp].d(A)[sp].d(C)[sp].d(T)[sp].d(G)[sp].d(A)[sp].d(A)[sp].d(C)[sp].d(A)[sp].d(A)[sp].d(A)[sp].[cEt](T)[sp].[moe](G)[sp].[cEt](G)[sp].[moe](C)}$$$$V2.0 | 76% and 78% | –
32 | RNA1{[moe](C)[sp].[moe](C)[sp].[moe](A)[sp].[moe](C)[sp].[moe](T)[sp].d(G)[sp].d(A)[sp].d(A)[sp].d(C)[sp].d(A)[sp].d(A)[sp].d(A)[sp].d(T)[sp].d(G)[sp].[moe](G)[sp].[moe](C)}$$$$V2.0 | 55% and 44% | –

From the OligoGym collection
